Among the data in PubChem BioAssay (NCI) are TGI and GI50 values, retold here.

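Five compound concentrations were applied to cells in 96-well plates for 48 hours; endpoints were derived by simple linear interpolation of the resulting dose-response curve. GI50 is the concentration that inhibits growth by half. TGI: concentration producing complete growth inhibition.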

Some test systems named below: A498 renal; HCT-116 colon; HL-60(TB) leukemia; KM20L2 colon; SF-268 CNS; SNB-19 CNS; DLD-1 colon; KM12 colon; NCI-H522 lung; PC-3 prostate.
Assay in all cases: NCI anticancer screen, dose series, 48 h

`CC(C)(C)C1=CC(=N/N=c2\scc(-c3ccccc3)n2Cc2ccccc2)C=C(C(C)(C)C)C1=O`: the TGI with A498 renal, in the assay with HCT-116 colon, with HL-60(TB) leukemia, in the assay on KM20L2 colon, in the assay with SF-268 CNS and in the assay with SNB-19 CNS was over 100 µM each time.

In the case of `O=C(O)CCC(O)=C1S(=O)(=O)OCCOS1(=O)=O`, the TGI with A498 renal, in the assay with DLD-1 colon, in the assay with HCT-116 colon, in the assay on HL-60(TB) leukemia, in the assay with KM12 colon and in the assay on KM20L2 colon was over 100 µM each time. Besides, the TGI in the assay on NCI-H522 lung, in the assay on PC-3 prostate, with SF-268 CNS and in the assay with SNB-19 CNS was over 100 µM each time.

In the case of `COc1ccc2nc3cc(Cl)ccc3c(Sc3ccc(N)cc3)c2c1`, the TGI with A498 renal was found to be 76.3 µM; with DLD-1 colon it was 19.8 µM; in the assay with HCT-116 colon, 17.3 µM; in the assay on KM12 colon, 19.4 µM; in the assay on KM20L2 colon, 17.9 µM; in the assay on NCI-H522 lung it was 16.2 µM. In addition, the results for the TGI in the assay on SF-268 CNS and with SNB-19 CNS were 34.4 µM and 33.4 µM, respectively.

`CC1=CC(=O)NP(=O)(Oc2ccc(Cl)cc2)N1` (stereo unspecified): the TGI in the assay with A498 renal, with DLD-1 colon, in the assay with HCT-116 colon, with HL-60(TB) leukemia, with KM12 colon and in the assay on KM20L2 colon was over 100 µM throughout. Also, the TGI in the assay with NCI-H522 lung, in the assay on SF-268 CNS and in the assay with SNB-19 CNS was over 100 µM in each case.

On to `Cc1nc(-n2nc(-c3ccccc3)cc2-c2ccccc2)sc1C(=O)CC(=O)C(=O)Nc1ccc(Cl)c(Cl)c1`, for which the TGI in the assay on A498 renal, in the assay on DLD-1 colon, with HCT-116 colon, in the assay on HL-60(TB) leukemia, in the assay on KM12 colon and with KM20L2 colon was over 100 µM each time. The TGI in the assay with NCI-H522 lung, in the assay with SF-268 CNS and with SNB-19 CNS was over 100 µM throughout.

Turning to `COC1CCCc2c(OC(C)=O)ccc(OC(C)=O)c21` (stereo unspecified), the TGI in the assay with HCT-116 colon, in the assay on HL-60(TB) leukemia, with KM12 colon, with KM20L2 colon, in the assay on SF-268 CNS and in the assay on SNB-19 CNS was over 100 µM each time.

For the compound `COCN1COCN(C)C1=O`, the TGI in the assay with A498 renal, in the assay with DLD-1 colon, in the assay on HCT-116 colon, with KM12 colon, in the assay with KM20L2 colon and in the assay with SF-268 CNS was over 100 µM throughout. The TGI in the assay with SNB-19 CNS was over 100 µM.

On to `CC(=O)OC1(Sc2ccccc2)CC2[C@H]3COC(C)(C)O[C@H]3CC[C@@]2(C)CC1=O` (stereo partly specified), for which the TGI in the assay with DLD-1 colon was over 100 µM; with HCT-116 colon, over 100 µM; with KM12 colon it was over 100 µM; in the assay with KM20L2 colon, over 100 µM; with NCI-H522 lung, 79.8 µM; in the assay with SNB-19 CNS, over 100 µM.

For `Cc1nc2ccccc2c(=O)n1/N=C(\N=Nc1ccc(Cl)cc1)c1cccc(-c2ccco2)c1`, the TGI was over 100 µM in the assay on A498 renal; over 100 µM in the assay with DLD-1 colon; 95.5 µM in the assay on HCT-116 colon; 69.4 µM in the assay on HL-60(TB) leukemia; over 100 µM in the assay with KM20L2 colon; 54.4 µM with NCI-H522 lung. The TGI in the assay with SF-268 CNS is over 100 µM.

Take `O=c1[nH]c2nc3ccccc3c(=O)n2nc1Cc1ccccc1`: the TGI in the assay with DLD-1 colon, with HCT-116 colon, in the assay on KM12 colon, in the assay with KM20L2 colon, with NCI-H522 lung and in the assay on SF-268 CNS was over 100 µM throughout. In addition, the TGI in the assay with SNB-19 CNS is over 100 µM.

Take `CCN1C(=O)N(CC)C2C1NN=c1s/c(=C3\C(=O)Nc4ccccc43)c(=O)n12` (stereo unspecified): the GI50 was 0.193 µM with A498 renal; 0.485 µM in the assay with HCT-116 colon; 0.296 µM in the assay on HL-60(TB) leukemia; 0.452 µM in the assay with KM12 colon; 0.373 µM in the assay on NCI-H522 lung; 0.393 µM with PC-3 prostate. Moreover, the GI50 was 10.6 µM in the assay on SF-268 CNS and 0.633 µM with SNB-19 CNS. The TGI was 0.728 µM with A498 renal; over 61.6 µM with HCT-116 colon; 0.91 µM in the assay on HL-60(TB) leukemia; over 100 µM with KM12 colon; over 43.6 µM with NCI-H522 lung; over 100 µM in the assay on PC-3 prostate. For the same compound, the TGI is 45.1 µM in the assay on SF-268 CNS and 32.3 µM with SNB-19 CNS.

As for `NCC(=O)Nc1ccc(Cl)cc1C(=O)c1ccc[nH]1`, the TGI is over 100 µM with A498 renal; over 100 µM in the assay with HCT-116 colon; over 100 µM in the assay with HL-60(TB) leukemia; over 100 µM in the assay on KM12 colon; 50.1 µM in the assay with NCI-H522 lung; over 100 µM in the assay on PC-3 prostate. In addition, the TGI with SF-268 CNS and with SNB-19 CNS was over 100 µM each time.

`O=NNc1ccc(-c2ccccc2)cn1`: the TGI in the assay on A498 renal is 32.7 µM; with HCT-116 colon, 29.9 µM; with HL-60(TB) leukemia, 51.9 µM; in the assay on KM12 colon, over 82.1 µM; in the assay with NCI-H522 lung, 49.3 µM; in the assay with PC-3 prostate it was 61.2 µM. The TGI in the assay on SF-268 CNS was 29.2 µM; in the assay with SNB-19 CNS, over 69 µM.

Consider `Cc1c(C)c2cc3c(=O)c(CCl)coc3c(C)c2oc1=O`, for which the TGI in the assay with A498 renal, with HCT-116 colon, with HL-60(TB) leukemia, in the assay with KM12 colon, in the assay with KM20L2 colon and with NCI-H522 lung was over 100 µM throughout. The TGI in the assay on SF-268 CNS and with SNB-19 CNS was over 100 µM throughout.

Take `O=C(c1ccccc1)c1nc2c(Cl)ccc(Cl)c2cc1C(Br)Br`: the TGI stood at 2.24 µM in the assay on DLD-1 colon; 1.56 µM in the assay with HCT-116 colon; 2.55 µM in the assay with KM12 colon; 2.51 µM with KM20L2 colon; 2.9 µM with NCI-H522 lung; 2.96 µM in the assay with SF-268 CNS. The TGI in the assay with SNB-19 CNS was 3.11 µM.

Regarding `COc1ccc(-c2cc(=O)c3c(O)c(O)c(OC)cc3o2)cc1O`, the TGI with A498 renal, in the assay on DLD-1 colon, with HCT-116 colon, in the assay on HL-60(TB) leukemia, in the assay on KM12 colon and in the assay on KM20L2 colon was over 100 µM each time. In addition, the TGI in the assay on NCI-H522 lung, in the assay on SF-268 CNS and in the assay on SNB-19 CNS was over 100 µM throughout.
